These results are taken from the Biogen ADME set (Fang et al. 2023).

The conditions of this data set: for aqueous solubility: pH 6.8.

The structures appear in SMILES notation. ≈ marks a conversion by molar mass, not a printed value.

As for `Cc1ccc(C(=O)Nc2nc3ccccc3[nH]2)cc1`, the aqueous solubility was found to be 0.85 µg/mL (≈ 3.38 µM).

Take `CO[C@@H]1CC[C@@H](N(C)C(=O)COc2c(C)cccc2C)[C@H]1O`: the MDR1-MDCK efflux ratio is 1.67; the intrinsic clearance, human liver microsomes was determined as 12.1 mL/min/kg; the intrinsic clearance, rat liver microsomes was determined as 162 mL/min/kg.

`Nc1ccc(N2C(=O)CCCC2=O)cc1` returned an aqueous solubility of 28 µg/mL (≈ 137 µM).

`Cc1cccnc1NC(=O)c1csc(-c2ccccc2)n1` showed an intrinsic clearance, human liver microsomes of 54 mL/min/kg; an intrinsic clearance, rat liver microsomes of 462 mL/min/kg; an aqueous solubility of 43.2 µg/mL (≈ 146 µM).

With `Cc1ccc(CN2CC[C@H](c3nnc(-c4ccccc4F)o3)C2)o1`, the MDR1-MDCK efflux ratio amounted to 0.493; the intrinsic clearance, human liver microsomes came to 27.7 mL/min/kg; the intrinsic clearance, rat liver microsomes amounted to 790 mL/min/kg; the aqueous solubility was determined as 45.4 µg/mL (≈ 139 µM).

Turning to `Cc1ccsc1C(=O)NCc1ccc2c(c1)OCCCO2`, the MDR1-MDCK efflux ratio was 0.582; the intrinsic clearance, human liver microsomes was 53.1 mL/min/kg; the intrinsic clearance, rat liver microsomes turned out to be 952 mL/min/kg; the aqueous solubility is 56.9 µg/mL (≈ 187 µM).

With `COCCOc1cnc2ccn([C@H](C)c3nnc4c(F)cc(-c5cnn(C)c5)cn34)c(=O)c2c1`, the MDR1-MDCK efflux ratio is 126; the intrinsic clearance, human liver microsomes amounted to 6.14 mL/min/kg; the intrinsic clearance, rat liver microsomes amounted to 25.1 mL/min/kg.

In the case of `Cc1nc(Cl)cc(Nc2ccc3c(c2)N(C)C(=O)CO3)n1`, the MDR1-MDCK efflux ratio is 0.746; the intrinsic clearance, human liver microsomes was determined as 34.6 mL/min/kg; the intrinsic clearance, rat liver microsomes is 63.2 mL/min/kg; the aqueous solubility is 30 µg/mL (≈ 98.5 µM).

With `CO[C@H]1CC[C@H](C(=O)NC[C@H]2CC[C@H](c3nnc(-c4nccc5ccccc45)o3)CC2)CC1`, the MDR1-MDCK efflux ratio amounted to 8.64; the intrinsic clearance, human liver microsomes stood at 103 mL/min/kg; the intrinsic clearance, rat liver microsomes is 378 mL/min/kg; the aqueous solubility was 21.2 µg/mL (≈ 47.3 µM).

Take `CC(=O)Nc1cccc(CN2CCCN(C(C)=O)c3ccccc32)c1`: the MDR1-MDCK efflux ratio is 15.9; the intrinsic clearance, human liver microsomes was determined as 139 mL/min/kg; the intrinsic clearance, rat liver microsomes was 919 mL/min/kg; the aqueous solubility was found to be 29.6 µg/mL (≈ 87.8 µM).

As for `CC(C)(C)n1ncc(OCc2ccc(OCCOCCO)nc2)c(Cl)c1=O`, the MDR1-MDCK efflux ratio is 4.55; the intrinsic clearance, human liver microsomes is 8.19 mL/min/kg; the intrinsic clearance, rat liver microsomes was determined as 88.1 mL/min/kg; the aqueous solubility came to 32.5 µg/mL (≈ 81.7 µM).

For the molecule `O=S(=O)(NCc1n[nH]c2c1CCCCC2)c1ccc(OC(F)F)cc1`, the MDR1-MDCK efflux ratio amounted to 7.25; the intrinsic clearance, human liver microsomes was found to be 361 mL/min/kg; the intrinsic clearance, rat liver microsomes worked out at 1760 mL/min/kg.

Take `CC(=O)Nc1ccc(Oc2ncnc3scc(-c4ccccc4)c23)cc1`: the MDR1-MDCK efflux ratio was 0.804; the intrinsic clearance, human liver microsomes is 39 mL/min/kg; the intrinsic clearance, rat liver microsomes amounted to 438 mL/min/kg; the aqueous solubility is 8.9 µg/mL (≈ 24.6 µM).

In the case of `COC(=O)N[C@H](C)CNc1nccc(-c2cn(C(C)C)nc2-c2cc(Cl)cc(NS(C)(=O)=O)c2F)n1`, the MDR1-MDCK efflux ratio stood at 129; the intrinsic clearance, human liver microsomes amounted to 14.7 mL/min/kg; the intrinsic clearance, rat liver microsomes stood at 66.5 mL/min/kg.

For the molecule `CC(C)c1ccccc1OC(=O)NCCc1ccc2ccccc2c1`, the MDR1-MDCK efflux ratio was determined as 0.492 and the aqueous solubility came to 0.71 µg/mL (≈ 2.13 µM).

For the molecule `O=C(CCc1ccccc1)N1CCC(c2cccc(Cc3ccc(F)cc3)n2)CC1`, the MDR1-MDCK efflux ratio was 0.727; the intrinsic clearance, human liver microsomes was 1000 mL/min/kg; the intrinsic clearance, rat liver microsomes is 4270 mL/min/kg; the aqueous solubility came to 4.5 µg/mL (≈ 11.2 µM).

In the case of `COc1cccc(-n2nc(C(=O)O)cc2-c2ccc(C3CCCCC3)c(Cl)c2)c1`, the MDR1-MDCK efflux ratio amounted to 1.56; the intrinsic clearance, human liver microsomes stood at 7.78 mL/min/kg; the intrinsic clearance, rat liver microsomes stood at 32.5 mL/min/kg; the aqueous solubility is 33.8 µg/mL (≈ 82.1 µM).

Turning to `Nc1ccnc2ccc(Oc3ccccc3)cc12`, the MDR1-MDCK efflux ratio was 0.486; the intrinsic clearance, human liver microsomes turned out to be 13.5 mL/min/kg; the intrinsic clearance, rat liver microsomes is 2330 mL/min/kg.

`Nc1nccc2c1ncn2[C@H]1C=C(CO)[C@@H](O)[C@H]1O` came in with an intrinsic clearance, human liver microsomes of no more than 4.74 mL/min/kg and an intrinsic clearance, rat liver microsomes of 16.3 mL/min/kg.

With `COc1ccc(CN2CCC(c3nc(C(C)C)no3)CC2)c(F)c1`, the MDR1-MDCK efflux ratio is 0.777; the intrinsic clearance, human liver microsomes is 35 mL/min/kg; the intrinsic clearance, rat liver microsomes was determined as 1710 mL/min/kg; the aqueous solubility was found to be 47.1 µg/mL (≈ 141 µM).

Regarding `Cc1c[nH]c(CNCc2ccccc2CC(C)C)n1`, the MDR1-MDCK efflux ratio came to 3.79; the intrinsic clearance, human liver microsomes came to 35.6 mL/min/kg; the intrinsic clearance, rat liver microsomes was found to be 2700 mL/min/kg.

`O=C(N[C@@H](COc1ccc2[nH]c(=O)[nH]c2c1)c1ccccc1)c1cccn(Cc2ccc(F)c(F)c2)c1=O` gave an intrinsic clearance, human liver microsomes of 53.2 mL/min/kg and an intrinsic clearance, rat liver microsomes of 383 mL/min/kg.

With `CCOCC(=O)N1CCC2(CCc3ccccc3O2)CC1`, the MDR1-MDCK efflux ratio is 0.732; the intrinsic clearance, human liver microsomes stood at 10.3 mL/min/kg; the intrinsic clearance, rat liver microsomes is 818 mL/min/kg; the aqueous solubility was 34.1 µg/mL (≈ 118 µM).

On to `Cc1cn(CCN2CCN(c3ccccc3-c3cc(C#N)cc(C(=O)NCCCN4CCCC4)c3)CC2)c2ccccc12`, for which the MDR1-MDCK efflux ratio came to 0.338; the intrinsic clearance, human liver microsomes amounted to 120 mL/min/kg; the intrinsic clearance, rat liver microsomes is 190 mL/min/kg; the aqueous solubility was 31.7 µg/mL (≈ 55.2 µM).

On to `CCc1nnsc1C(=O)Nc1cccc(-c2nnc3n2CCCCC3)c1`, for which the MDR1-MDCK efflux ratio worked out at 47.2; the intrinsic clearance, human liver microsomes was found to be 15 mL/min/kg; the intrinsic clearance, rat liver microsomes was 142 mL/min/kg; the aqueous solubility was found to be 32.2 µg/mL (≈ 87.5 µM).

Consider `c1ccc(CCc2n[nH]c(-c3cccc4cnccc34)n2)cc1`, for which the MDR1-MDCK efflux ratio is 1.09; the intrinsic clearance, human liver microsomes stood at 107 mL/min/kg; the intrinsic clearance, rat liver microsomes was 443 mL/min/kg; the aqueous solubility worked out at 41.7 µg/mL (≈ 139 µM).

The molecule `COc1c(C)cnc(Cn2cnc3c(Cl)nc(N)nc32)c1C` came in with an intrinsic clearance, human liver microsomes of 8.46 mL/min/kg and an intrinsic clearance, rat liver microsomes of 72.9 mL/min/kg.

On to `CC1(C)CCCN1C(=O)c1c(F)cc(C#N)cc1F`, for which the MDR1-MDCK efflux ratio was 0.663; the intrinsic clearance, human liver microsomes was no more than 4.74 mL/min/kg; the intrinsic clearance, rat liver microsomes was 69.7 mL/min/kg.

Consider `O=c1ncn2nc(Sc3ccc(F)cc3F)ccc2c1-c1c(Cl)cccc1Cl`, for which the MDR1-MDCK efflux ratio came out at 8.01; the intrinsic clearance, human liver microsomes was determined as 14.6 mL/min/kg; the intrinsic clearance, rat liver microsomes came to 90.4 mL/min/kg; the aqueous solubility worked out at 12.9 µg/mL (≈ 29.6 µM).

With `Cc1cc(NC(=O)[C@H](C)N(C)C)c2ccccc2n1`, the MDR1-MDCK efflux ratio worked out at 0.813; the intrinsic clearance, human liver microsomes came to 9.63 mL/min/kg; the intrinsic clearance, rat liver microsomes was 109 mL/min/kg.

As to `Cc1ccc(-c2ccc3c(ccc4sc5c(c43)NC[C@@H](C)NC5=O)n2)cn1`, the MDR1-MDCK efflux ratio turned out to be 5.49 and the aqueous solubility turned out to be 0.2 µg/mL (≈ 0.534 µM).

For `Cc1cccc(-n2cnnc2CCCN2CCOCC2)c1`, the MDR1-MDCK efflux ratio is 30.5; the intrinsic clearance, human liver microsomes was no more than 4.74 mL/min/kg; the intrinsic clearance, rat liver microsomes is 98.3 mL/min/kg; the aqueous solubility turned out to be 35 µg/mL (≈ 122 µM).

`CON(C)C(=O)Cc1c(C)[nH]c2ccccc12`: the MDR1-MDCK efflux ratio amounted to 0.627; the intrinsic clearance, human liver microsomes is no more than 4.74 mL/min/kg; the intrinsic clearance, rat liver microsomes was found to be 70.4 mL/min/kg; the aqueous solubility came out at 53 µg/mL (≈ 228 µM).

With `O=C(Nc1nc2ccccc2[nH]1)c1ccc(-c2ccccc2)cc1`, the aqueous solubility is 0.5 µg/mL (≈ 1.6 µM).

As for `COc1ccc2c(-c3ccccc3)cc3nnnn3c2c1`, the MDR1-MDCK efflux ratio is 0.48 and the aqueous solubility stood at 0.15 µg/mL (≈ 0.543 µM).

Turning to `Cc1nc(C2(NCc3cccc(C#N)c3)CCCC2)no1`, the MDR1-MDCK efflux ratio was 0.681; the intrinsic clearance, human liver microsomes came to 13.3 mL/min/kg; the intrinsic clearance, rat liver microsomes amounted to 505 mL/min/kg; the aqueous solubility was determined as 47.6 µg/mL (≈ 169 µM).

`Cc1cnc(-c2nc(NCc3cccnc3)ncc2-c2cc(C)no2)cn1` came in with an intrinsic clearance, human liver microsomes of 17.1 mL/min/kg and an intrinsic clearance, rat liver microsomes of 261 mL/min/kg.

On to `CCCN(CCc1cccs1)[C@H]1CCc2c(O)cccc2C1`, for which the MDR1-MDCK efflux ratio was 0.512; the intrinsic clearance, human liver microsomes was determined as 98.1 mL/min/kg; the intrinsic clearance, rat liver microsomes was found to be 3810 mL/min/kg.

Turning to `CC(C)N(C)S(=O)(=O)NCCCc1nc2cc(Cl)ccc2[nH]1`, the MDR1-MDCK efflux ratio worked out at 16.7; the intrinsic clearance, human liver microsomes was found to be 134 mL/min/kg; the intrinsic clearance, rat liver microsomes stood at 2500 mL/min/kg.

With `CN(Cc1ccc(C(=O)O)cc1)C(=O)c1ccnn1C`, the MDR1-MDCK efflux ratio stood at 0.663; the intrinsic clearance, human liver microsomes is no more than 4.74 mL/min/kg; the intrinsic clearance, rat liver microsomes was no more than 10.7 mL/min/kg.

As to `COc1ccc(CNC(=O)CCCOc2ccc(C(C)=O)cc2)cc1`, the MDR1-MDCK efflux ratio stood at 1.02; the intrinsic clearance, human liver microsomes was found to be 34.5 mL/min/kg; the intrinsic clearance, rat liver microsomes worked out at 644 mL/min/kg; the aqueous solubility was determined as 20.2 µg/mL (≈ 59.2 µM).

In turn, `Cc1nc(C(=O)NC2CC2)ccc1C#N` gave an aqueous solubility of 36.2 µg/mL (≈ 180 µM).

Turning to `COc1cccc(C(=O)Nc2nccs2)c1`, the MDR1-MDCK efflux ratio worked out at 0.562; the intrinsic clearance, human liver microsomes was 109 mL/min/kg; the intrinsic clearance, rat liver microsomes was found to be 605 mL/min/kg.

On to `CN(C)C1(CNC(=O)N2CCC=C(c3ccccc3)C2)CCOCC1`, for which the MDR1-MDCK efflux ratio was 35.5; the intrinsic clearance, human liver microsomes was 34.8 mL/min/kg; the intrinsic clearance, rat liver microsomes worked out at 874 mL/min/kg.

`CCN(C/C=C/c1ccc(F)cc1)Cc1nc(COC)no1`: the MDR1-MDCK efflux ratio worked out at 0.527; the intrinsic clearance, human liver microsomes turned out to be 25.9 mL/min/kg; the intrinsic clearance, rat liver microsomes was determined as 862 mL/min/kg; the aqueous solubility worked out at 32 µg/mL (≈ 105 µM).

As to `COCC(=O)N1CCC(Cc2ccccc2-c2cccc(F)c2)(C(=O)NC(C)C)CC1`, the MDR1-MDCK efflux ratio is 33.1; the fraction unbound, human plasma is 0.0395; the fraction unbound, rat plasma turned out to be 0.119; the intrinsic clearance, human liver microsomes stood at 149 mL/min/kg. The molecule further came in with an intrinsic clearance, rat liver microsomes of 572 mL/min/kg.

For the molecule `CCc1cc(CNC(=O)NC2CCN(CC3CCCCC3)CC2)on1`, the MDR1-MDCK efflux ratio stood at 26.6; the intrinsic clearance, human liver microsomes is no more than 4.74 mL/min/kg; the intrinsic clearance, rat liver microsomes came out at 80.4 mL/min/kg.

Broadly, the aqueous solubility is how much of the substance goes into solution per volume. High values mean a readily soluble substance, low ones a poorly soluble substance.
